Reference: patent US5736565A, “Therapeutic compounds suitable for the treatment of diseases connected with glutathione deficiency, process for their preparation, and pharmaceutical compositions containing same” (Prospa B.V., priority 1992, dated 1998)
Peptide text beside a SMILES is read from it.

Tests used:
[1] = system: serum antibodies versus ram erythrocytes; assay: Immunization tests versus ram erythrocytes in rat immunodepressed by cyclophosphamide (CTX); assay type: in vivo, Sprague-Dawley rats; settings: for serum antibodies level (agglutination, Days from immunization): 600 mg/kg i.p. + CTX
Description: (§1) Sprague-Dawley rats (Charles River, Calco (CO)), aged 10 weeks (young adults) and 24 months (old), were stabled under standard conditions (24°±1° C., 12 h light/dark cycle, free access to food and water). Handlings were made in such a way as to avoid stressful stimuli.
(§2) The animals were stabled in groups of 6 per cage and treated for 2 weeks (15 days) with a PSC daily dose of 600 mg/kg by intraperitoneal route (i.p.).
Immunization tests versus ram erythrocytes in Sprague-Dawley rat immunodepressed by cyclophosphamide (CTX)
0.3 Milliliters of ram erythrocytes (3%) in 0.9% sodium chloride solution were injected to Sprague-Dawley rats, both young (aged 10 weeks, weighing 150-200 g) and old (aged 24 months). A second injection was made on the 21st day after the first one. The rats were treated with PSC (600 mg/kg i.p.). Treatment started 3 days before immunization and continued until the 40th day of experiment. Cyclophosphamide (CTX) (150 mg/kg/die) was injected i.p. on the 3rd, 4th, and 5th day after immunization with erythrocytes.
The animals were subdivided (6 animals each group) into the following experimental groups:
1) Non-immunized controls (CTRL);
2) Immunized controls (CTRL);
4) Immunized +CTX+PSC (600 mg/kg i.p.).
The determination of serum antibodies levels was carried out by agglutination reaction: the serum in 0.9% sodium chloride solution was diluted from 1:2 to 1:1024 and ram erythrocytes at a concentration of 5×10^8 /ml were added. The determination of antibodies was carried out 2 hrs after incubation at 37° C. Each sample was assayed twice (Tables 11 and 12).

[2] = system: peripheral lymphocytes; assay: Blastization with concavaline A (ConA) of peripheral lymphocytes of PSC-treated rats; assay type: in vivo, Sprague-Dawley rats
Description: as §1, §2
(§3) Once the treatment with PSC previously described in the paragraph "Animals" was completed, the animals, both young and old, were sacrificed by decapitation and the blood collected in heparin-treated tubes. The blood samples were stratified on Ficoll-Paque gradient and centrifuged at 2500 rpm for 15 min. The lymphocytic cellular fraction was taken by suction and washed three times with a Lphysiological solution (0.9% NaCl). At the end of the treatment, the cells were resuspended in culture medium RPMI 1640 containing 10% FBS, counted (1×10^5 cells/0.1 ml/well) and incubated for 48 hrs at 37° C., in a 5% carbon dioxide environment. At the incubation end, mitogens concavaline A (ConA) and phytohaemagglutinin (PHA) were added to the cultures at a concentration of 1 μg/ml in a volume of 0.1 ml. Eighteen hours later, tritiated thymidine (0.01 ml) was added to the cultures, subsequently incubated for 3 hrs. At the incubation end, cells were sucked by cell harvester and the filters were placed in scintillation vials with addition of 5 ml of scintillating solution. Radioactivity (dpm) was measured 2 min. using a β-counter.
The results obtained on ConA- or PHA-treated groups (controls), on PSC-treated groups (600 mg/kg), and on groups that had not been treated either with ConA or PSC are compared in Tables 14 and 15.

[3] = system: peripheral lymphocytes; assay: Blastization with phytohaemagglutinin (PHA) of peripheral lymphocytes of PSC-treated rats; assay type: in vivo, Sprague-Dawley rats; settings: 600 mg/kg i.p. 15 days + PHA
Description: as §1, §2
as §3, with “At the incubation end, cells were sucked by cell harvester and the filters were placed in scintillation vials with addition of 5 ml of scintillating solution.” left out, “β-counter. […]” for “β-counter.”

[4] = system: malonic aldehyde (MDA) in brain; assay: PSC effect on lipid peroxidation (MDA) in rat SNC; assay type: in vivo, male Wistar rats; settings: old animals, 100 mg/kg i.p.
From the text: Since lipid peroxidation, i.e. the oxidation of an α-methylenic bridge of a polyunsaturated fatty acid, is a process that, through the formation of intermediates (such as lipid peroxides and hydroperoxides), provide carbonyl fragments, including malonic aldehyde (MDA), efforts were made by the Applicant to check whether administration of the test molecule might reduce MDA levels in the SNC, which are closely related to the presence of free radicals and, consequently, to a potential neuronal damage, which is strongly responsible for the induction of age-related alterations.
The test was carried out on male Wistar rats stabled in groups of 5/cage, at 21° C. and constant light/dark cycle, fed with standard laboratory food.
[…] was assayed both on young and old rats, prior to and after treatment with PSC (100 mg/kg). A few hours after treatment, all animals were sacrificed and their brain readily excised. MDA was determined by a micromethod modified according to Slater and Sawyer (Slater T. F. and Sawyer B. C., 1971, J. Biochem., Tokio 8: 2180). The tissue was maintained 10 min. at 0° C. in 0.05M Tris-HCl buffer, pH 7.4, and homogenized. […] After cooling, the absorbance at 532 nm was recorded by a spectrophotometer. […] Proteins were measured by Smith's method using, as a reagent, bicinchoninic acid (BCA) (Smith et al., 1985, Anal. Biochem., 27, 502).

[5] = 600 mg/kg, analogous for ConA and PHA

## CC(=O)SC[C@H](NC(=O)[C@@H]1CCC(=O)N1)C(=O)O [PSC, 2-(S)-(2-pyrrolidone-5-(S)-carbonyl amido)-3-acetylmercapto propionic acid] (HELM PEPTIDE1{[Glp].C}|PEPTIDE2{[ac]}$PEPTIDE1,PEPTIDE2,2:R3-1:R2$$$V2.0)
[1]; CTX-immunodepressed old rat
  restoring immunological functionality (in words): effective in restoring a correct immunological functionality
[1]; intraperitoneal, young and old rats
  antibodies levels (in words): causes a considerable increase in antibodies levels both in young (Table 11) and old (Table 12) rats
[1]; old rats, day 12
  serum antibodies level (agglutination, Days from immunization): 2
[1]; old rats, day 20
  serum antibodies level (agglutination, Days from immunization): 8
[1]; old rats, day 29
  serum antibodies level (agglutination, Days from immunization): 32
[1]; old rats, day 40
  serum antibodies level (agglutination, Days from immunization): 64
[1]; young rats, day 12
  serum antibodies level (agglutination, Days from immunization): 2
[1]; young rats, day 20
  serum antibodies level (agglutination, Days from immunization): 4
[1]; young rats, day 29
  serum antibodies level (agglutination, Days from immunization): 20
[1]; young rats, day 40
  serum antibodies level (agglutination, Days from immunization): 20
[2]; 600 mg/kg i.p. 15 days + ConA
  blastization (tritiated thymidine incorporation), Young: 714 ± 23 DPM × 100
[2]; 600 mg/kg i.p. 15 days + ConA, *P < 0.05
  blastization (tritiated thymidine incorporation), Elderly: 512 ± 27 DPM × 100
[2]; [5]
  incorporation index of tritiated thymidine, young rats (in words): did not differ from controls
  index of thymidine incorporation, old rats (in words): showed an increased index of thymidine incorporation in respect of controls
[3]
  blastization (tritiated thymidine incorporation), Young: 703 ± 44 DPM × 100
[3]; *P < 0.05
  blastization (tritiated thymidine incorporation), Elderly: 533 ± 29 DPM × 100
[4]
  MDA: 0.723 +/- 0.32 nmols/mg proteins
